Read-outs that look alike come from different tables or passages of the source.
How the values were obtained:
Format in all cases: cell-based
[1] = system: S. aureus ATCC 29213 (methicillin sensitive); assay: broth microdilution MIC assay, S. aureus ATCC 29213; settings: Staphylococcus aureus, ATCC 29213 / MSSA
Description: (§1) To determine the ability of test compounds to potentiate the inhibition of the growth of bacterial strains, classic cell-based broth microdilution MIC assays were employed. MIC assays are performed according to CLSI methods except where otherwise noted (CLSI, 2011 and CLSI, 2009). The reference strains S. aureus ATCC 29213 (methicillin sensitive), S. aureus ATCC 33591 (methicillin-resistant), E. coli ATCC 25922 (wild-type/QC strain), P. aeruginosa ATCC 27853 (wild-type/QC strain), and the clinical isolate P. aeruginosa PA 8 were used to determine the ability of the exemplary carbapenem compounds to inhibit bacterial growth. An expanded panel of methicillin resistance S. aureus (MRSA) and Pseudomonas was also used to determine the ability of exemplary carbapenem compounds to inhibit bacterial growth across a broader representation of those species. To determine activity in MRSA and in addition to S. aureus ATCC 33591, S. aureus USA 300, USA 400 and USA 600, some of the most common clones found to cause human infection, were also used. To further gauge the impact on the carbapenem compounds due to various resistance mechanisms in Pseudomonas, the following strains were included: P. aeruginosa 35151 (hyper-permeable strain), P. aeruginosa AmexAB-OprM (an efflux pump knockout), and P. aeruginosa PA 3 (a clinical isolate of reduced carbapenem susceptibility). Briefly, cryo-preserved bacterial cultures of clinical strains are streaked for isolation on appropriate agar medium, in this case Mueller Hinton II agar. Following incubation to allow formation of colonies, these plates are sealed with parafilm and stored refrigerated for up to two weeks. For preparation of assay inocula and to ensure low variability, at least 5 colonies are picked from the agar plates with an inoculating loop and aseptically transferred to a culture tube containing 3 mL of Mueller-Hinton Broth (supplemented with divalent cations to required levels based on Manufacturers' specification). The broth culture is grown for 3-5 hours at 37° C. with shaking at 200 rpm. Meanwhile, 2-fold serial dilutions of test compounds are conducted in a 96 well plate with a final volume of 75 μL per well at 2-fold the final desired concentration. After the dilution plates are set up the growing cultures are then diluted in a cuvette containing MH II broth and the optical density is measured at 600 nm. Inocula are diluted such that 75 μL of this culture in Mueller-Hinton Broth results in a starting bacterial concentration of 5×10^5 CFU/mL when added to the dilution plates. The plates are incubated 16-20 hours at 37° C. The MIC is read visually as the lowest concentration well with no bacterial growth.
(§2) Representative results are shown in Tables 3, 4, and 5 where A represents an MIC>32 μg/mL, B represents an MIC between 8 and 32 μg/mL inclusive, C represents an MIC between 1 and 4 μg/mL inclusive, and D represents an MIC of <1 μg/mL. NT=Not Tested.

[2] = system: P. aeruginosa ATCC 27853 (wild-type/QC strain); assay: broth microdilution MIC assay, P. aeruginosa ATCC 27853; settings: Pseudomonas aeruginosa
How it was run: (§3)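 Colonies from Mueller Hinton II agar → MH broth (divalent cations supplemented), 37 °C, 200 rpm, 3-5 h → OD600-adjusted to 5×10^5 CFU/mL final → 2-fold serial compound dilutions → 16-20 h, 37 °C → visual MIC.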

[3] = system: clinical isolate P. aeruginosa PA 8; assay: broth microdilution MIC assay, P. aeruginosa PA 8; settings: Pseudomonas aeruginosa, P. aeruginosa PA8
Description: as §1, §2

[4] = system: S. aureus ATCC 33591 (methicillin-resistant); assay: broth microdilution MIC assay, S. aureus ATCC 33591; settings: Staphylococcus aureus
How it was run: as §3

[5] = system: E. coli ATCC 25922 (wild-type/QC strain); assay: broth microdilution MIC assay, E. coli ATCC 25922; settings: Escherichia coli
How it was run: as §3

S. aureus USA600 = assay: broth microdilution MIC assay, S. aureus USA 600; settings: Staphylococcus aureus; Table 4; S. aureus USA600; read-out: S. aureus USA600 MIC
How it was run: as §3

[6] = system: P. aeruginosa PA 3 (a clinical isolate of reduced carbapenem susceptibility); assay: broth microdilution MIC assay, P. aeruginosa PA 3; settings: Pseudomonas aeruginosa; Table 5; P. aeruginosa PA3
Description: as §1, §2

S. aureus USA 300 = assay: broth microdilution MIC assay, S. aureus USA 300; settings: Staphylococcus aureus; Table 4; S. aureus USA300; read-out: S. aureus USA300 MIC
How it was run: as §3

[7] = system: P. aeruginosa ΔmexAB-OprM (an efflux pump knockout); assay: broth microdilution MIC assay, P. aeruginosa ΔmexAB-OprM; settings: Pseudomonas aeruginosa, 20 h, read-out: P. aeruginosa ΔmexAB-OprM MIC
How it was run: as §3

[8] = system: P. aeruginosa 35151 (hyper-permeable strain); assay: broth microdilution MIC assay, P. aeruginosa 35151; settings: Pseudomonas aeruginosa, read-out: P. aeruginosa 35151 MIC
How it was run: as §3

[9] = Table 3, S. aureus 29213 (MSSA), read-out: S. aureus 29213 (MSSA) MIC
[10] = ATCC27853, Table 3, P. aeruginosa 27853, read-out: P. aeruginosa 27853 MIC
[11] = ATCC 33591 / MRSA, Table 3, S. aureus 33591 (MRSA), read-out: S. aureus 33591 (MRSA) MIC
[12] = ATCC25922, Table 3, E. coli 25922, read-out: E. coli 25922 MIC

Row | MIC [1, 9] [µg/mL] | MIC [2, 10] [µg/mL] | MIC ([3]; Table 3) [µg/mL] | MIC [4, 11] [µg/mL] | MIC [5, 12] [µg/mL] | SMILES | other results
1 | < 1 | 1 to 4 | > 32 | 8 to 32 | < 1 | C[C@@H](O)[C@H]1C(=O)N2C(C(=O)O)=C(S[C@H]3CCN(C4CCNCC4)C3)[C@H](C)[C@H]12 [Example 2, (4R,5S,6S)-6-((R)-1-hydroxyethyl)-4-methyl-7-oxo-3-(((S)-1-(piperidin-4-yl)pyrrolidin-3-yl)thio)-1-azabicyclo[3.2.0]hept-2-ene-2-carboxylic acid] | 
2 | < 1 | 1 to 4 | 8 to 32 | 8 to 32 | < 1 | C[C@@H](O)[C@H]1C(=O)N2C(C(=O)O)=C(S[C@@H]3CCN(C4CCCNC4)C3)[C@H](C)[C@H]12 (stereo partly drawn) [Example 4, (4R,5S,6S)-6-((R)-1-hydroxyethyl)-4-methyl-7-oxo-3-(((3R)-1-(piperidin-3-yl)pyrrolidin-3-yl)thio)-1-azabicyclo[3.2.0]hept-2-ene-2-carboxylic acid] | 
3 | < 1 | 1 to 4 | 1 to 4 | 8 to 32 | < 1 | C[C@@H](O)[C@H]1C(=O)N2C(C(=O)O)=C(S[C@@H]3CCN(C4CCNC4)C3)[C@H](C)[C@H]12 (stereo partly drawn) [Example 6, (4R,5S,6S)-3-(((3R)-[1,3′-bipyrrolidin]-3-yl)thio)-6-((R)-1-hydroxyethyl)-4-methyl-7-oxo-1-azabicyclo[3.2.0]hept-2-ene-2-carboxylic acid] | 
4 | < 1 | 1 to 4 | 1 to 4 | 1 to 4 | < 1 | C[C@@H](O)[C@H]1C(=O)N2C(C(=O)O)=C(S[C@@H]3CCN(CC4CCNCC4)C3)[C@H](C)[C@H]12 [Example 7, (4R,5S,6S)-6-((R)-1-hydroxyethyl)-4-methyl-7-oxo-3-(((R)-1-(piperidin-4-ylmethyl)pyrrolidin-3-yl)thio)-1-azabicyclo[3.2.0]hept-2-ene-2-carboxylic acid] | 
5 | < 1 | 8 to 32 | 8 to 32 | 1 to 4 | < 1 | C[C@@H](O)[C@H]1C(=O)N2C(C(=O)O)=C(S[C@@H]3CCN(C[C@H]4CCCN4)C3)[C@H](C)[C@H]12 [Example 8, (4R,5S,6S)-6-((R)-1-hydroxyethyl)-4-methyl-7-oxo-3-(((R)-1-(((R)-pyrrolidin-2-yl)methyl)pyrrolidin-3-yl)thio)-1-azabicyclo[3.2.0]hept-2-ene-2-carboxylic acid] | 
6 | < 1 | 8 to 32 | 8 to 32 | 8 to 32 | < 1 | C[C@@H](O)[C@H]1C(=O)N2C(C(=O)O)=C(S[C@@H]3CCN(Cc4ccncc4)C3)[C@H](C)[C@H]12 [Example 9, (4R,5S,6S)-6-((R)-1-hydroxyethyl)-4-methyl-7-oxo-3-(((R)-1-(pyridin-4-ylmethyl)pyrrolidin-3-yl)thio)-1-azabicyclo[3.2.0]hept-2-ene-2-carboxylic acid] | 
7 | < 1 | 1 to 4 | 1 to 4 | 1 to 4 | < 1 | C[C@@H](O)[C@H]1C(=O)N2C(C(=O)O)=C(S[C@@H]3CCN(CCC4CCNCC4)C3)[C@H](C)[C@H]12 [Example 11, (4R,5S,6S)-6-((R)-1-hydroxyethyl)-4-methyl-7-oxo-3-(((R)-1-(2-(piperidin-4-yl)ethyl)pyrrolidin-3-yl)thio)-1-azabicyclo[3.2.0]hept-2-ene-2-carboxylic acid] | 
8 |  |  |  |  |  | C[C@@H](O)[C@H]1C(=O)N2C(C(=O)O)=C(S[C@@H]3CCN(CC4(F)CCNCC4)C3)[C@H](C)[C@H]12 [Example 16, (4R,5S,6S)-3-(((R)-1-((4-fluoropiperidin-4-yl)methyl)pyrrolidin-3-yl)thio)-6-((R)-1-hydroxyethyl)-4-methyl-7-oxo-1-azabicyclo[3.2.0]hept-2-ene-2-carboxylic acid] | MIC ([1]; read-out: S. aureus 29213 (MSSA) MIC (μg/mL)): < 1 µg/mL; MIC ([2]; ATCC27853, read-out: P. aeruginosa 27853 MIC (μg/mL)): 8 to 32 µg/mL; MIC ([4]; ATCC 33591 / MRSA, read-out: S. aureus 33591 (MRSA) MIC (μg/mL)): 8 to 32 µg/mL; MIC ([5]; ATCC25922, read-out: E. coli 25922 MIC (μg/mL)): < 1 µg/mL
9 | 1 to 4 | 1 to 4 | 1 to 4 | 8 to 32 | < 1 | CNCc1ccc(CN2CC[C@@H](SC3=C(C(=O)O)N4C(=O)[C@H]([C@@H](C)O)[C@H]4[C@H]3C)C2)cc1 [Example 19, (4R,5S,6S)-6-((R)-1-hydroxyethyl)-4-methyl-3-(((R)-1-(4-((methylamino)methyl)benzyl)pyrrolidin-3-yl)thio)-7-oxo-1-azabicyclo[3.2.0]hept-2-ene-2-carboxylic acid] | 
10 | 1 to 4 | 1 to 4 | 1 to 4 | 8 to 32 | < 1 | CN[C@H]1CC[C@@H](CN2CC[C@@H](SC3=C(C(=O)O)N4C(=O)[C@H]([C@@H](C)O)[C@H]4[C@H]3C)C2)CC1 [Example 22, (4R,5S,6S)-6-((R)-1-hydroxyethyl)-4-methyl-3-(((R)-1-(((1s,4S)-4-(methylamino)cyclohexyl)methyl)pyrrolidin-3-yl)thio)-7-oxo-1-azabicyclo[3.2.0]hept-2-ene-2-carboxylic acid] | 
11 | 1 to 4 | 1 to 4 | 8 to 32 | 8 to 32 | < 1 | C[C@@H](O)[C@H]1C(=O)N2C(C(=O)O)=C(S[C@@H]3CCN([C@H]4CC[C@H](N)CC4)C3)[C@H](C)[C@H]12 [Example 24, (4R,5S,6S)-3-(((R)-1-((1s,4S)-4-aminocyclohexyl)pyrrolidin-3-yl)thio)-6-((R)-1-hydroxyethyl)-4-methyl-7-oxo-1-azabicyclo[3.2.0]hept-2-ene-2-carboxylic acid] | 
12 |  |  |  |  |  | C[C@@H](O)[C@H]1C(=O)N2C(C(=O)O)=C(S[C@@H]3CCCN(CC4CCNCC4)C3)[C@H](C)[C@H]12 [Example 43, (4R,5S,6S)-6-((R)-1-hydroxyethyl)-4-methyl-7-oxo-3-(((R)-1-(piperidin-4-ylmethyl)piperidin-3-yl)thio)-1-azabicyclo[3.2.0]hept-2-ene-2-carboxylic acid] | MIC ([2]; ATCC27853, Table 5, P. aeruginosa 27853, read-out: P. aeruginosa 27853 MIC): 8 to 32 µg/mL; MIC ([3]; Table 5): > 32 µg/mL; MIC ([4]; ATCC33591, Table 4, S. aureus 33591, read-out: S. aureus 33591 MIC): 8 to 32 µg/mL; MIC (S. aureus USA600): 1 to 4 µg/mL; MIC [6]: > 32 µg/mL; MIC (S. aureus USA 300): 1 to 4 µg/mL; MIC ([5]; ATCC25922, Table 4, E. coli 25922, read-out: E. coli 25922 MIC): < 1 µg/mL; MIC [7]: 8 to 32 µg/mL; MIC [8]: < 1 µg/mL

From patent US12084445B2, “Broad-spectrum carbapenems” (VenatoRx Pharmaceuticals, Inc., priority 2018, dated 2024)
